The values below come from PMC5706069 (2017).

For series [1], the system named is acute thermal nociception. Briefly: Hot-plate assay in mice after sc administration. The series is classed as in vivo. As to conditions: Mus musculus, 0.5 h, read-out: antinociceptive activity hot-plate assay ED50 (95% CI). On the technique in general: In hot-plate and tail-flick tests a longer latency is read as antinociception.
In series [2] the target is T1, human MOR (Homo sapiens, UniProt P35372). Briefly: [35S]GTPγS binding assay using CHO-hMOR cell membranes. To be noted: for Emax: read-out: functional activity [35S]GTPγS MOR % stim; for EC50: read-out: functional activity [35S]GTPγS MOR EC50, mean ± SEM. It is filed as biochemical. A general note: GTPγS is a poorly hydrolysed GTP analogue; its binding reports G protein activation.

The target in another series is human KOR (Homo sapiens, UniProt P41145). Briefly: Competition binding assay, [3H]HS665, CHO-hKOR cell membranes. As to conditions: for selectivity KOR/MOR: ratio of Ki values; for Ki: read-out: opioid receptor binding, Ki, affinity KOR, CHO-hKOR membranes, [3H]HS665, mean ± SEM, at least three experiments.
Another series addresses human DOR (Homo sapiens, UniProt P41143). Briefly: Competition binding assay, [3H]diprenorphine, CHO-hDOR cell membranes. To be noted: for selectivity DOR/MOR: ratio of Ki values; for Ki: read-out: opioid receptor binding, Ki, affinity DOR, CHO-hDOR membranes, [3H]diprenorphine, mean ± SEM, at least three experiments.
Series [3] addresses T1, human MOR. Briefly: Competition binding assay, [3H]DAMGO, CHO-hMOR cell membranes. To be noted: for Ki: read-out: opioid receptor binding, Ki, affinity MOR, CHO-hMOR membranes, [3H]DAMGO, mean ± SEM, at least three experiments.
A further series deals with MOR. As to conditions: 14-methoxy group introduced into 1; ref 6a, 6b; cited from earlier work.
For the next series, the system named is antinociception. To be noted: cited from earlier work.
For series [4], the system named is gastrointestinal motility. As to conditions: ref 6b; cited from earlier work.

The ED50 is the dose at which the effect has come halfway, by size or by number of responders. With `CN1CC[C@]23c4c5ccc(O)c4O[C@H]2C(=O)CC[C@@]3(O)[C@H]1C5` [Compound 1, oxymorphone, reference compound], the ED50 in series [1] is 0.382 mg/kg.

For orientation: EC50 means the concentration at which the effect is half-maximal. Usually Ki stands for the equilibrium dissociation constant of an inhibitor or competing ligand from its target. With `CN1CC[C@]23c4c5ccc(O)c4O[C@H]2CCC[C@@]3(O)[C@H]1C5` [Compound 1a, 3,14-Dihydroxy-4,5α-epoxy-17-methylmorphinan], the Emax at human MOR [2] amounted to 104 ± 7%. Also, the EC50 on human MOR [2] (CHO-hMOR membranes) is 8.99 ± 2.19 nM. At human KOR, the “selectivity KOR/MOR” value came to 13 and the Ki was found to be 21.6 ± 3.9 nM. The “decrease in affinity to the DOR, 1a vs 1” value on human DOR (human DOR, Ki ratio) is on record as ~3 fold. In addition, at human DOR, the “selectivity DOR/MOR” value turned out to be 122 and the Ki came out at 201 ± 80 nM. Moreover, the ED50 in series [1] amounted to 0.383 mg/kg. The inhibition constant (Ki) on human MOR [3] turned out to be 1.65 ± 0.5 nM.

In the case of `CO[C@@]12CCC(=O)[C@@H]3Oc4c(O)ccc5c4[C@@]31CCN(C)[C@@H]2C5` [Compound 2, 14-O-methyloxymorphone], the Emax at human MOR [2] was determined as 96.4 ± 5%. Besides, the EC50 at human MOR [2] (CHO-hMOR membranes) stood at 1.45 ± 0.32 nM. For the same compound, the “selectivity KOR/MOR” value on human KOR is given as 32. For the same compound, the Ki at human KOR came out at 10.1 ± 3.1 nM; at human DOR, 8.8 ± 0.35 nM; at human MOR [3], 0.32 ± 0.08 nM. The “selectivity DOR/MOR” value at human DOR came to 28. The ED50 in series [1] was determined as 0.0142 mg/kg. Moreover, the “increase in MOR affinity vs oxymorphone (1)” value with MOR is given as ~9 fold. For the same compound, the “increase in antinociceptive potency vs oxymorphone (1)” value in the series with antinociception (ref 6a, 6b) was 40 fold.

Turning to `CO[C@@]12CCC[C@@H]3Oc4c(O)ccc5c4[C@@]31CCN(C)[C@@H]2C5` [Compound 2a, 4,5α-Epoxy-3-hydroxy-14β-methoxy-17-methylmorphinan], the Emax on human MOR [2] turned out to be 105 ± 6%. In addition, the EC50 at human MOR [2] (CHO-hMOR membranes) worked out at 1.37 ± 0.26 nM. Also, at human KOR, the “selectivity KOR/MOR” value is 17 and the Ki was found to be 3.99 ± 0.63 nM. Besides, on human DOR, the “selectivity DOR/MOR” value stood at 36 and the Ki worked out at 8.64 ± 2.25 nM. Also, in series [1], the ED50 turned out to be 0.0173 mg/kg. On human MOR [3], the Ki came to 0.24 ± 0.08 nM.

On to `CN1CC[C@]23c4c5ccc(O)c4O[C@H]2C(=O)CC[C@@]3(OCc2ccccc2)[C@H]1C5` [Compound 3, 14-O-benzyloxymorphone], for which, in series [4], the “inhibition of gastrointestinal motility” value is listed as “negligible”, the “less constipating than 2” value was 7 fold and the “less constipating than morphine” value is listed as 2.5 fold. The Emax at human MOR [2] was found to be 101 ± 5%. For the same compound, the EC50 on human MOR [2] (CHO-hMOR membranes) was found to be 0.32 ± 0.16 nM. Also, on human KOR, the “selectivity KOR/MOR” value was 2.8 and the Ki was determined as 1.27 ± 0.24 nM. In addition, at human DOR, the “selectivity DOR/MOR” value turned out to be 2.3 and the Ki came out at 1.05 ± 0.42 nM. Further, the ED50 in series [1] came out at 0.00238 mg/kg. The Ki on human MOR [3] came to 0.45 ± 0.1 nM. Besides, the “increased antinociceptive potency compared to 2” value in the series with antinociception (ref 6b) is reported as 5 fold.

`CN1CC[C@]23c4c5ccc(O)c4O[C@H]2CCC[C@@]3(OCc2ccccc2)[C@H]1C5` [Compound 3a, 14β-Benzyloxy-4,5α-epoxy-3-hydroxy-17-methylmorphinan]: on human MOR [2] ([35S]GTPγS, human MOR), the “increase in the EC50 of 3a compared to 3” value is listed as ~2.5 fold. For the same compound, the Emax on human MOR [2] is 103 ± 8%. Further, the EC50 on human MOR [2] (CHO-hMOR membranes) was 0.13 ± 0.03 nM. In addition, the “higher MOR/KOR selectivity ratio than 3” value at human KOR (3a vs 3) was ~6 fold. Moreover, the “selectivity KOR/MOR” value on human KOR worked out at 18. In addition, the Ki was 0.85 ± 0.05 nM on human KOR, 0.89 ± 0.29 nM on human DOR and 0.048 ± 0.011 nM on human MOR [3]. Also, the “higher MOR/DOR selectivity ratio than 3” value at human DOR (3a vs 3) is listed as “about 9 fold”. Also, the ED50 in series [1] was determined as 0.00241 mg/kg. Moreover, at human MOR [3] (human MOR, Ki ratio), the “increase in MOR affinity, 3a vs 3” value is on record as “up to 9 fold”.

For `CO[C@@]12CCC(=O)[C@]3(C)Oc4c(O)ccc5c4[C@@]31CCN(C)[C@@H]2C5` [Compound 4, 14-methoxymetopon], the Emax on human MOR [2] turned out to be 99.2 ± 2.8%. For the same compound, on human MOR [2] (CHO-hMOR membranes), the EC50 was determined as 3.28 ± 0.81 nM. Also, at human KOR, the “selectivity KOR/MOR” value was found to be 60 and the Ki was 15.1 ± 0.9 nM. Also, on human DOR, the “selectivity DOR/MOR” value is recorded as 79 and the Ki is 19.8 ± 1.3 nM. Also, the ED50 in series [1] was found to be 0.0271 mg/kg.

`CO[C@@]12CCC[C@]3(C)Oc4c(O)ccc5c4[C@@]31CCN(C)[C@@H]2C5` [Compound 4a, 5β,17-Dimethyl-4,5α-epoxy-3-hydroxy-14β-methoxymorphinan]: on human MOR [2] (CHO-hMOR membranes), the EC50 amounted to 2.95 ± 0.54 nM. For the same compound, the Ki at human KOR is 7.92 ± 4.47 nM; on human DOR it was 12.9 ± 1.6 nM; on human MOR [3] it was 0.34 ± 0.08 nM. Also, the ED50 in series [1] was determined as 0.0251 mg/kg.

Consider `C[C@@H](NC(=O)[C@@H](N)Cc1ccc(O)cc1)C(=O)NCC(=O)N(C)[C@@H](Cc1ccccc1)C(=O)NCCO` [DAMGO, [D-Ala^2,Me-Phe^4,Gly-ol^5]enkephalin, reference compound], for which the “% stim of the reference full agonist DAMGO in [35S]GTPγS binding” value at human MOR [2] (CHO-hMOR membranes, DAMGO's own stimulation, the reference for efficacies) is reported as 221 ± 13%.
